Measurements from the supplement of paper PMC6045584.
± gives the standard deviation of the averaged measurements.

Legend:
[1] = compound: T1, CNC(=O)c1ccc(N2C(=S)N(c3ccc(C#N)c(C(F)(F)F)c3)C(=O)C2(C)C)cc1F [MDV3100]; assay: surviving fraction relative to DMSO-only wells; higher = less growth inhibition; conditions: exposure time: 5 days
How it was run: (§1)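 After seeding at 250–500 cells per well in 384-well plates and a 24-hour wait, log-phase tumour cell lines were exposed without interruption for five days to inhibitors at 0.5, 1, 5, 10, 50, 100, 500 and 1000 nM. CellTiter-Glo luminescence was recorded after 10 minutes at room temperature. Viability is reported as surviving fraction, the luminescence normalised to the median of DMSO-only wells.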

[2] = compound: T2, CC[C@@H]1C(=O)N(C)c2cnc(Nc3ccc(C(=O)NC4CCN(C)CC4)cc3OC)nc2N1C1CCCC1 [BI-2536]; assay: as above; conditions: exposure time: 5 days
How it was run: as §1

[3] = compound: Cn1cc(C2=Nc3cc(NC(=O)C(N)C4CCCCC4)cc4c3C2=CNNC4=O)cn1; assay: as above; conditions: exposure time: 5 days
How it was run: as §1

[4] = compound: T3, CN(C)C/C=C/C(=O)Nc1cc2c(Nc3ccc(F)c(Cl)c3)ncnc2cc1O[C@H]1CCOC1 [AFATINIB]; assay: as above; conditions: exposure time: 5 days
How it was run: as §1

[5] = compound: T4, CC1(C)CC(=O)c2c(C(F)(F)F)nn(-c3ccc(C(N)=O)c(N[C@H]4CC[C@H](OC(=O)CN)CC4)c3)c2C1 [SNX-5422]; assay: as above; conditions: exposure time: 5 days
How it was run: as §1

[6] = compound: T5, Nc1nc2[nH]cnc2c(=S)[nH]1 [TIOGUANINE]; assay: as above; conditions: exposure time: 5 days
How it was run: as §1

[7] = compound: T6, CCCCCCCCCCCCCCCC(=O)Nc1ccn([C@@H]2O[C@H](CO)[C@@H](O)[C@@H]2C#N)c(=O)n1 [SAPACITABINE]; assay: as above; conditions: exposure time: 5 days
How it was run: as §1

[8] = compound: T7, C=CC(=O)Nc1cc2c(Nc3ccc(F)c(Cl)c3)ncnc2cc1OCCCN1CCOCC1 [CANERTINIB]; assay: as above; conditions: exposure time: 5 days
How it was run: as §1

[9] = compound: T1, MDV3100; assay: area under dose-response curve of surviving fraction (unscaled, Aref=0) (surviving fraction x log10(nM)); higher = more resistant; conditions: exposure time: 5 days; dose range 0.5-1000 nM
How it was run: (§2)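 Each tumour cell line was screened three times in 384-well plates, receiving eight inhibitor concentrations from 0.5 to 1000 nM for five days. CellTiter-Glo luminescence gave viability, normalised to DMSO-only wells. Using the drc R package, surviving fractions were fitted with 3-parameter logistic dose-response curves, and the unscaled activity area over log10 dose (Aref = 0) was taken as the area under the curve.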

[10] = compound: T2, BI-2536; assay: as above; conditions: exposure time: 5 days; dose range 0.5-1000 nM
How it was run: as §2

[11] = compound: Cn1cc(C2=Nc3cc(NC(=O)C(N)C4CCCCC4)cc4c3C2=CNNC4=O)cn1; assay: as above; conditions: exposure time: 5 days; dose range 0.5-1000 nM
How it was run: as §2

[12] = compound: T3, AFATINIB; assay: as above; conditions: exposure time: 5 days; dose range 0.5-1000 nM
How it was run: as §2

[13] = compound: T4, SNX-5422; assay: as above; conditions: exposure time: 5 days; dose range 0.5-1000 nM
How it was run: as §2

[14] = compound: T5, TIOGUANINE; assay: as above; conditions: exposure time: 5 days; dose range 0.5-1000 nM
How it was run: as §2

[15] = compound: T6, SAPACITABINE; assay: as above; conditions: exposure time: 5 days; dose range 0.5-1000 nM
How it was run: as §2

[16] = compound: T7, CANERTINIB; assay: as above; conditions: exposure time: 5 days; dose range 0.5-1000 nM
How it was run: as §2

SG43 HEADNECK
surviving fraction ([1]; 0.5 nM): 0.866 ± 0.21
surviving fraction ([1]; 1 nM): 1.01 ± 0.25
surviving fraction ([1]; 5 nM): 0.913 ± 0.11
surviving fraction ([1]; 10 nM): 0.952 ± 0.14
surviving fraction ([1]; 50 nM): 0.702 ± 0.11
surviving fraction ([1]; 100 nM): 0.998 ± 0.28
surviving fraction ([1]; 500 nM): 1.17 ± 0.06
surviving fraction ([1]; 1000 nM): 1.16 ± 0.065
surviving fraction ([2]; 0.5 nM): 0.902 ± 0.22
surviving fraction ([2]; 1 nM): 1.04 ± 0.23
surviving fraction ([2]; 5 nM): 0.734 ± 0.16
surviving fraction ([2]; 10 nM): 0.715 ± 0.099
surviving fraction ([2]; 50 nM): 0.454 ± 0.079
surviving fraction ([2]; 100 nM): 0.323 ± 0.12
surviving fraction ([2]; 500 nM): 0.17 ± 0.051
surviving fraction ([2]; 1000 nM): 0.0543 ± 0.014
surviving fraction ([3]; 0.5 nM): 1.08 ± 0.17
surviving fraction ([3]; 1 nM): 0.969 ± 0.1
surviving fraction ([3]; 5 nM): 0.929 ± 0.19
surviving fraction ([3]; 10 nM): 1.01 ± 0.37
surviving fraction ([3]; 50 nM): 1.11 ± 0.21
surviving fraction ([3]; 100 nM): 1.06 ± 0.15
surviving fraction ([3]; 500 nM): 0.888 ± 0.098
surviving fraction ([3]; 1000 nM): 0.968 ± 0.097
surviving fraction ([4]; 0.5 nM): 1.03 ± 0.33
surviving fraction ([4]; 1 nM): 0.966 ± 0.27
surviving fraction ([4]; 5 nM): 0.362 ± 0.022
surviving fraction ([4]; 10 nM): 0.414 ± 0.18
surviving fraction ([4]; 50 nM): 0.301 ± 0.11
surviving fraction ([4]; 100 nM): 0.181 ± 0.044
surviving fraction ([4]; 500 nM): 0.182 ± 0.046
surviving fraction ([4]; 1000 nM): 0.0613 ± 0.035
surviving fraction ([5]; 0.5 nM): 0.971 ± 0.16
surviving fraction ([5]; 1 nM): 1.26 ± 0.33
surviving fraction ([5]; 5 nM): 0.911 ± 0.033
surviving fraction ([5]; 10 nM): 0.865 ± 0.13
surviving fraction ([5]; 50 nM): 0.205 ± 0.085
surviving fraction ([5]; 100 nM): 0.033 ± 0.004
surviving fraction ([5]; 500 nM): 0.0307 ± 0.019
surviving fraction ([5]; 1000 nM): 0.037 ± 0.003
surviving fraction ([6]; 0.5 nM): 1 ± 0.073
surviving fraction ([6]; 1 nM): 0.986 ± 0.23
surviving fraction ([6]; 5 nM): 0.684 ± 0.14
surviving fraction ([6]; 10 nM): 0.988 ± 0.083
surviving fraction ([6]; 50 nM): 0.778 ± 0.18
surviving fraction ([6]; 100 nM): 0.895 ± 0.15
surviving fraction ([6]; 500 nM): 0.91 ± 0.1
surviving fraction ([6]; 1000 nM): 1.11 ± 0.13
surviving fraction ([7]; 0.5 nM): 1.04 ± 0.091
surviving fraction ([7]; 1 nM): 1.28 ± 0.23
surviving fraction ([7]; 5 nM): 1.08 ± 0.17
surviving fraction ([7]; 10 nM): 1.11 ± 0.29
surviving fraction ([7]; 50 nM): 0.867 ± 0.14
surviving fraction ([7]; 100 nM): 1.04 ± 0.072
surviving fraction ([7]; 500 nM): 0.933 ± 0.13
surviving fraction ([7]; 1000 nM): 1.05 ± 0.04
surviving fraction ([8]; 0.5 nM): 1.05 ± 0.074
surviving fraction ([8]; 1 nM): 1.06 ± 0.1
surviving fraction ([8]; 5 nM): 0.772 ± 0.21
surviving fraction ([8]; 10 nM): 0.816 ± 0.14
surviving fraction ([8]; 50 nM): 0.387 ± 0.23
surviving fraction ([8]; 100 nM): 0.223 ± 0.027
surviving fraction ([8]; 500 nM): 0.265 ± 0.05
surviving fraction ([8]; 1000 nM): 0.183 ± 0.0075
area under dose-response curve [9]: 3.06
area under dose-response curve [10]: 1.83
area under dose-response curve [11]: 3.31
area under dose-response curve [12]: 1.3
area under dose-response curve [13]: 1.7
area under dose-response curve [14]: 2.96
area under dose-response curve [15]: 3.5
area under dose-response curve [16]: 1.92

MDAMB453 BREAST
surviving fraction ([1]; 0.5 nM): 0.953 ± 0.045
surviving fraction ([1]; 1 nM): 0.942 ± 0.071
surviving fraction ([1]; 5 nM): 0.962 ± 0.055
surviving fraction ([1]; 10 nM): 0.98 ± 0.07
surviving fraction ([1]; 50 nM): 0.956 ± 0.054
surviving fraction ([1]; 100 nM): 0.967 ± 0.037
surviving fraction ([1]; 500 nM): 0.985 ± 0.032
surviving fraction ([1]; 1000 nM): 0.924 ± 0.0079
surviving fraction ([2]; 0.5 nM): 0.994 ± 0.018
surviving fraction ([2]; 1 nM): 0.763 ± 0.052
surviving fraction ([2]; 5 nM): 0.178 ± 0.019
surviving fraction ([2]; 10 nM): 0.156 ± 0.025
surviving fraction ([2]; 50 nM): 0.173 ± 0.017
surviving fraction ([2]; 100 nM): 0.171 ± 0.0075
surviving fraction ([2]; 500 nM): 0.108 ± 0.031
surviving fraction ([2]; 1000 nM): 0.0703 ± 0.042
surviving fraction ([3]; 0.5 nM): 0.971 ± 0.011
surviving fraction ([3]; 1 nM): 1.01 ± 0.034
surviving fraction ([3]; 5 nM): 0.999 ± 0.026
surviving fraction ([3]; 10 nM): 1.01 ± 0.04
surviving fraction ([3]; 50 nM): 0.784 ± 0.044
surviving fraction ([3]; 100 nM): 0.293 ± 0.013
surviving fraction ([3]; 500 nM): 0.179 ± 0.019
surviving fraction ([3]; 1000 nM): 0.206 ± 0.011
surviving fraction ([4]; 0.5 nM): 1.08 ± 0.061
surviving fraction ([4]; 1 nM): 1 ± 0.045
surviving fraction ([4]; 5 nM): 1.05 ± 0.064
surviving fraction ([4]; 10 nM): 1.05 ± 0.029
surviving fraction ([4]; 50 nM): 0.777 ± 0.076
surviving fraction ([4]; 100 nM): 0.668 ± 0.091
surviving fraction ([4]; 500 nM): 0.576 ± 0.027
surviving fraction ([4]; 1000 nM): 0.41 ± 0.026
surviving fraction ([5]; 0.5 nM): 1.02 ± 0.034
surviving fraction ([5]; 1 nM): 1.08 ± 0.036
surviving fraction ([5]; 5 nM): 1.08 ± 0.028
surviving fraction ([5]; 10 nM): 1.08 ± 0.037
surviving fraction ([5]; 50 nM): 0.458 ± 0.055
surviving fraction ([5]; 100 nM): 0.254 ± 0.016
surviving fraction ([5]; 500 nM): 0.0493 ± 0.013
surviving fraction ([5]; 1000 nM): 0.0633 ± 0.017
surviving fraction ([6]; 0.5 nM): 1.01 ± 0.073
surviving fraction ([6]; 1 nM): 0.999 ± 0.053
surviving fraction ([6]; 5 nM): 1.04 ± 0.027
surviving fraction ([6]; 10 nM): 1.02 ± 0.04
surviving fraction ([6]; 50 nM): 1.08 ± 0.03
surviving fraction ([6]; 100 nM): 1.03 ± 0.029
surviving fraction ([6]; 500 nM): 0.98 ± 0.13
surviving fraction ([6]; 1000 nM): 0.864 ± 0.09
surviving fraction ([7]; 0.5 nM): 0.988 ± 0.053
surviving fraction ([7]; 1 nM): 0.968 ± 0.053
surviving fraction ([7]; 5 nM): 1 ± 0.058
surviving fraction ([7]; 10 nM): 1.03 ± 0.07
surviving fraction ([7]; 50 nM): 1.01 ± 0.022
surviving fraction ([7]; 100 nM): 1.01 ± 0.067
surviving fraction ([7]; 500 nM): 0.641 ± 0.033
surviving fraction ([7]; 1000 nM): 0.407 ± 0.03
surviving fraction ([8]; 0.5 nM): 1.04 ± 0.026
surviving fraction ([8]; 1 nM): 1 ± 0.016
surviving fraction ([8]; 5 nM): 1.01 ± 0.058
surviving fraction ([8]; 10 nM): 1.01 ± 0.071
surviving fraction ([8]; 50 nM): 1.02 ± 0.047
surviving fraction ([8]; 100 nM): 1.07 ± 0.026
surviving fraction ([8]; 500 nM): 0.823 ± 0.0089
surviving fraction ([8]; 1000 nM): 0.637 ± 0.067
area under dose-response curve [9]: 3.16
area under dose-response curve [10]: 0.857
area under dose-response curve [11]: 2.33
area under dose-response curve [12]: 2.7
area under dose-response curve [13]: 2.06
area under dose-response curve [14]: 3.28
area under dose-response curve [15]: 3.1
area under dose-response curve [16]: 3.19
